Converted amounts (≈) assume the structure as drawn.
Key:
[1] = molecular target: T1, acid ceramidase (Homo sapiens, UniProt Q13510); assay: Acid ceramidase inhibition, biochemical fluorescent assay with cell lysates overexpressing acid ceramidase, substrate Rbm14-12; conditions: substrate Rbm14-12 6.3 μM, pH 4.5, 1 hr preincubation at RT
T1 construct: Cell lysates overexpressing acid ceramidase were used as the enzyme source; expressed in transfected cells
T1 sequence (Q13510 22-395): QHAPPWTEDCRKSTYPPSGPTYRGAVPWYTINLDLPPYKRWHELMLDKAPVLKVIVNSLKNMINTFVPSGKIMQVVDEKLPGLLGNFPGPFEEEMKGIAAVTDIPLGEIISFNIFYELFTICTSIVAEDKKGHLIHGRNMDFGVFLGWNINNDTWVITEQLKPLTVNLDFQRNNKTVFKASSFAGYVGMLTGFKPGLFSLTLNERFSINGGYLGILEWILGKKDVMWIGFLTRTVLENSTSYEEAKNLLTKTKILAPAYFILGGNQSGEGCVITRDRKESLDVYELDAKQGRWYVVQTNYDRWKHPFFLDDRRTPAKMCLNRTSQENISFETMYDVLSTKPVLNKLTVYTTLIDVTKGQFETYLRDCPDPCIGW
Method in brief: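 Lysate of cells overexpressing acid ceramidase (10 μg protein) preincubated with compound dose series 1 hr at RT in 25 mM NaAC, 100 mM NaCl, pH 4.5, then reacted 1 hr with 6.3 μM Rbm14-12. Stopped with NaIO4/glycine buffer pH 10.6, fluorescence ex360/em446; IC50 by four-parameter fit.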

[2] = Compound solubility in water

Structure (SMILES)	IC50 [1] [nM]	solubility [2] [µg/mL]
CC(C)CCNC(=O)n1cnc2c(N3CCN(C)CC3)cccc21 [Example 119, N-iso-Pentyl-4-(4-methylpiperazin-1-yl)-1H-benzo[d]imidazole-1-carboxamide]	200 to 1000	23 (≈ 69.8 µM)
CC(C)CCNC(=O)n1c(OCCN(C)C)nc2ccccc21 [Example 120, 2-(2-(Dimethylamino)ethoxy)-N-iso-pentyl-1H-benzo[d]imidazole-1-carboxamide]	< 200	21 (≈ 66 µM)
COc1cccc2c1ncn2C(=O)NCCC1CC1 [Example 121, N-(2-Cyclopropylethyl)-4-methoxy-1H-benzo[d]imidazole-1-carboxamide]	200 to 1000	22.6 (≈ 87.2 µM)
COc1nc2cc(-c3cccnc3)cnc2n1C(=O)NCCCCc1ccccc1 [Example 122, 2-Methoxy-N-(4-phenylbutyl)-6-(pyridin-3-yl)-3H-imidazo[4,5-b]pyridine-3-carboxamide]	< 200	0.04 (≈ 0.0996 µM)
CC(C)CNC(=O)n1c(=O)n(C)c2ccc(-c3cccnc3)cc21 [Example 123, N-iso-Butyl-3-methyl-2-oxo-6-(pyridin-3-yl)-2,3-dihydro-1H-benzo[d]imidazole-1-carboxamide]	> 1000	0.6 (≈ 1.85 µM)
O=C(NCCc1ccccc1)n1c(=O)[nH]c2cccnc21 [Example 124, 2-Oxo-N-phenethyl-1H-imidazo[4,5-b]pyridine-3(2H)-carboxamide]	> 1000	4 (≈ 14.2 µM)
CSc1nc2cc(-c3cccnc3)cnc2n1C(=O)NCC(C)C [Example 125]	200 to 1000	6 (≈ 17.6 µM)
CC(C)CNC(=O)n1cnc2cc(-c3cncs3)ccc21 [Example 126a, N-iso-Butyl-5-(thiazol-5-yl)-1H-benzo[d]imidazole-1-carboxamide]	< 200	6 (≈ 20 µM)
CC(C)CNC(=O)n1cnc2ccc(-c3cncs3)cc21 [Example 126b, N-iso-butyl-6-(thiazol-5-yl)-1H-benzo[d]imidazole-1-carboxamide]	200 to 1000	14 (≈ 46.6 µM)
CCn1c(=O)n(C(=O)NCCc2ccccc2)c2ncccc21 [Example 127, 1-Ethyl-2-oxo-N-phenethyl-1H-imidazo[4,5-b]pyridine-3(2H)-carboxamide]	200 to 1000	23 (≈ 74.1 µM)
[2H]c1nc2ccccc2n1C(=O)NCCc1ccccc1 [Example 128, N-Phenethyl-1H-benzo[d]imidazole-2-d-1-carboxamide]	< 200	15 (≈ 56.3 µM)
N#Cc1cccc2c1ncn2C(=O)NCCCCc1ccccc1 [Example 130, 4-Cyano-N-(4-phenylbutyl)-1H-benzo[d]imidazole-1-carboxamide]	< 200	1.3 (≈ 4.08 µM)
N#Cc1cccc2c1ncn2C(=O)NCCCOc1ccccc1 [Example 131, 4-Cyano-N-(3-phenoxypropyl)-1H-benzo[d]imidazole-1-carboxamide]	< 200	5 (≈ 15.6 µM)
COc1cc(N2CCCCC2)c2ncn(C(=O)NCCCCC3CC3)c2c1 [Example 132, N-(4-Cyclopropylbutyl)-6-methoxy-4-(piperidin-1-yl)-1H-benzo[d]imidazole-1-carboxamide]	< 200	0.2 (≈ 0.54 µM)
COc1nc2ccc(N3CCOCC3)cc2n1C(=O)NCCCCc1ccccc1 [Example 133a, 2-Methoxy-6-morpholino-N-(4-phenylbutyl)-1H-benzo[d]imidazole-1-carboxamide]	< 200	1 (≈ 2.45 µM)
COc1nc2cc(N3CCOCC3)ccc2n1C(=O)NCCCCc1ccccc1 [Example 133b, 2-methoxy-5-morpholino-N-(4-phenylbutyl)-1H-benzo[d]imidazole-1-carboxamide]	< 200	2 (≈ 4.9 µM)
COc1nc2ccc(N3CCOCC3)cc2n1C(=O)NCCCc1ccccc1 [Example 134a, 2-Methoxy-6-morpholino-N-(3-phenylpropyl)-1H-benzo[d]imidazole-1-carboxamide]	< 200	17 (≈ 43.1 µM)
COc1nc2cc(N3CCOCC3)ccc2n1C(=O)NCCCc1ccccc1 [Example 134b, 2-methoxy-5-morpholino-N-(3-phenylpropyl)-1H-benzo[d]imidazole-1-carboxamide]	< 200	16 (≈ 40.6 µM)
COc1nc2cccnc2n1C(=O)NCCCCn1ccc(C(C)(C)C)n1 [Example 135a, N-(4-(3-(tert-Butyl)-1H-pyrazol-1-yl)butyl)-2-methoxy-3H-imidazo[4,5-b]pyridine-3-carboxamide]	< 200	15 (≈ 40.5 µM)

Structure (SMILES)	IC50 [1] [nM]	solubility [2] [µg/mL]
COc1cc(C2CCN(C)CC2)c2ncn(C(=O)NCCCCc3ccccc3)c2c1 [Example 136, 6-Methoxy-4-(1-methylpiperidin-4-yl)-N-(4-phenylbutyl)-1H-benzo[d]imidazole-1-carboxamide]	< 200	21 (≈ 49.9 µM)
O=C(NCCCCc1ccccc1)n1cnc2c(N3CCOCC3)cccc21 [Example 137, 4-Morpholino-N-(4-phenylbutyl)-1H-benzo[d]imidazole-1-carboxamide]	< 200	0.6 (≈ 1.59 µM)
COc1nc2c(C#N)cccc2n1C(=O)NCCCCc1ccccc1 [Example 138, 4-Cyano-2-methoxy-N-(4-phenylbutyl)-1H-benzo[d]imidazole-1-carboxamide]	< 200	0.3 (≈ 0.861 µM)
COc1nc2c(C#N)cccc2n1C(=O)NCC1CCC(F)(F)CC1 [Example 139, 4-Cyano-N-((4,4-difluorocyclohexyl)methyl)-2-methoxy-1H-benzo[d]imidazole-1-carboxamide]	< 200	9 (≈ 25.8 µM)
COc1nc2c(C#N)cccc2n1C(=O)NCC#CC(C)C [Example 140, 4-Cyano-2-methoxy-N-(4-methylpent-2-ynyl)-1H-benzo[d]imidazole-1-carboxamide]	< 200	10 (≈ 33.7 µM)
O=C(NCCCC1CC1)n1cnc2c(N3CCOCC3)cccc21 [Example 141, N-(3-Cyclopropylpropyl)-4-morpholino-1H-benzo[d]imidazole-1-carboxamide]	< 200	15 (≈ 45.7 µM)
O=C(NCCCc1ccccc1)n1cnc2c(N3CCOCC3)cccc21 [Example 142, 4-Morpholino-N-(3-phenylpropyl)-1H-benzo[d]imidazole-1-carboxamide]	< 200	1.4 (≈ 3.84 µM)
CC(C)CCNC(=O)n1cnc2c(N3CCC(F)(F)CC3)cccc21 [Example 143, 4-(4,4-Difluoropiperidin-1-yl)-N-isopentyl-1H-benzo[d]imidazole-1-carboxamide]	200 to 1000	2 (≈ 5.71 µM)
COc1nc2c(N3CCC(F)(F)CC3)cccc2n1C(=O)NCCC(C)C [Example 144, 4-(4,4-Difluoropiperidin-1-yl)-N-isopentyl-2-methoxy-1H-benzo[d]imidazole-1-carboxamide]	> 1000	1.2 (≈ 3.15 µM)
COc1nc2c(N3CCN(C)CC3)cccc2n1C(=O)NCCC(C)C [Example 145, N-iso-Pentyl-2-methoxy-4-(4-methylpiperazin-1-yl)-1H-benzo[d]imidazole-1-carboxamide]	> 1000	46 (≈ 128 µM)
COc1nc2c(N3CCOCC3)cccc2n1C(=O)NCCC(C)C [Example 146, N-iso-Pentyl-2-methoxy-4-morpholino-1H-benzo[d]imidazole-1-carboxamide]	> 1000	17 (≈ 49.1 µM)
CC(C)CCNC(=O)n1cnc2c(N3CCN(C4CC4)CC3)cccc21 [Example 147, 4-(4-Cyclopropylpiperazin-1-yl)-N-iso-pentyl-1H-benzo[d]imidazole-1-carboxamide]	200 to 1000	14 (≈ 39.4 µM)
O=C(NC1CCCCC1)n1cnc2c(N3CCN(C4CC4)CC3)cccc21 [Example 148, N-Cyclohexyl-4-(4-cyclopropylpiperazin-1-yl)-1H-benzo[d]imidazole-1-carboxamide]	> 1000	3 (≈ 8.16 µM)
O=C(NC1CCCCC1)n1cnc2c(N3CCOCC3)cccc21 [Example 149, N-Cyclohexyl-4-morpholino-1H-benzo[d]imidazole-1-carboxamide]	> 1000	15 (≈ 45.7 µM)
O=C(NCCCc1ccccc1)n1cnc2c(N3CCN(C4CC4)CC3)cccc21 [Example 150, 4-(4-Cyclopropylpiperazin-1-yl)-N-(3-phenylpropyl)-1H-benzo[d]imidazole-1-carboxamide]	< 200	1.5 (≈ 3.72 µM)
CC(C)CCNC(=O)n1cnc2c(N3CCCCC3)cccc21 [Example 151, N-iso-Pentyl-4-(piperidin-1-yl)-1H-benzo[d]imidazole-1-carboxamide]	200 to 1000	2 (≈ 6.36 µM)
CC(C)CCNC(=O)n1cnc2c(N3CCN(CC4CC4)CC3)cccc21 [Example 152, 4-(4-(Cyclopropylmethyl)piperazin-1-yl)-N-iso-pentyl-1H-benzo[d]imidazole-1-carboxamide]	200 to 1000	20 (≈ 54.1 µM)
CC(C)CCNC(=O)n1cnc2c(N3CCN(CC(F)(F)F)CC3)cccc21 [Example 153, N-iso-Pentyl-4-(4-(2,2,2-trifluoroethyl)piperazin-1-yl)-1H-benzo[d]imidazole-1-carboxamide]	200 to 1000	10 (≈ 25.2 µM)
CC(C)CCNC(=O)n1cnc2c(N3CCN(C4COC4)CC3)cccc21 [Example 154, N-iso-Pentyl-4-(4-(oxetan-3-yl)piperazin-1-yl)-1H-benzo[d]imidazole-1-carboxamide]	200 to 1000	30 (≈ 80.8 µM)

From patent US20220380319A1 (Bial - R&D Investments, S.A., priority 2019, published 2022)
